Results from US20090012152A1, “Use of Tetramic Acid Derivatives for Controlling Insects from the Genus of the Plane Lice (Sternorrhyncha)” (Bayer CropScience Aktiengesellschaft, priority 2005, published 2009).

Assays:
Type in all cases: in vivo
Aonidiella aurantii = test: Example 15: orange trees treated against Aonidiella aurantii; conditions: on fruits, % a.i.: Tokuthion 0.048 (once), I-9 0.0096, I-2 0.0096 (two applications)
Procedure: In three replications, 3-year-old orange trees of the cultivar “Midnight Valenzia” are treated against Aonidiella aurantii. Two applications are carried out at an interval of 72 days, using a motor-operated knapsack sprayer. Here, the active compounds Example (I-9) (240 SC) and Example (I-2) (240 SC) in a tank mix with 0.1% a.i. of rapeseed oil methyl ester (500 EW) at the stated application rate are tested against the standard Tokuthion (960 EC) at the stated amounts. applied once. The application rate is 4 l of water per tree.
Evaluation is carried out 130 and 176 days after the treatment by rating the kill on the fruits.

Bemisia tabaci = test: Example 32: bell peppers treated against Bemisia tabaci; conditions: larvae on leaves, % a.i.: imidacloprid 0.02, I-9, I-2, I-11 0.0144; for Kill (%) 7 d: 7 d after second treatment; for Kill (%) 14 d: 14 d after second treatment; for Kill (%) 22 d: 22 d after second treatment
Procedure: In three replications, plots of a size of 10 m^2 with bell peppers of the cultivar “Italiano” are treated against Bemisia tabaci. The application is carried out using a motor-operated knapsack sprayer. Here, the active compounds Example (I-9) (240 SC), Example (I-2) (60 SC) and Example (I-11) (60 SC) and the commercial standard imidacloprid (200 SL) are applied at the stated application rates. Three applications at an interval of 14 or 15 days are carried out, at an application rate of 1000 or 1100 l of water/ha.
Evaluation is carried out 7, 14 and 22 days after the second treatment by rating the kill of the animals (larvae) on the leaves.

Aphis fabae = test: Example 51: broad beans treated against Aphis fabae; conditions: nymphs on leaves, g a.i./ha: Pirimor 250, I-9 36, I-2 36, I-4 42; for Kill (%) 7 d: 7 d after treatment; for Kill (%) 15 d: 15 d after treatment
Procedure: In three replications, plots of a size of 10 m^2 with broad beans of the cultivar “Fruhe Weisskeimige” are treated against Aphis fabae. The application is carried out using a knapsack sprayer operated with pressurized air. Here, the active compounds Example (I-9) (240 SC), Example (I-2) (240 SC) and Example (I-4) (240 SC), in a tank mix with 0.2% of rapeseed oil methyl ester (500 EW), and the commercial standard Pirimor (50 WG) are tested at the stated application rates. Application is carried out once. The application rate is 500 l of water/ha.
Evaluation is carried out 7 and 15 days after the treatment by rating the kill of the nymphs on the leaves.

Pemphigus bursarius [1] = test: Example 2: chrysanthemums, lettuce root aphid, foliar spray; conditions: on roots, spray on above-ground parts, rate : I-9 144, I-2 96
Procedure: In three replications, in each case 10 109-day-old chrysanthemums of the cultivar “Camilla” in 2 l-vessels are treated against the lettuce root aphid Pemphigus bursarius. Here, the active compounds Example (I-9) (240 SC) and Example (I-2) (240 SC) are applied with a knapsack sprayer operated by pressurized air at the stated application rates only to the above-ground parts of the plants. The soil is covered with a film. The application rate is 300 l of water/ha. 0.1% a.i. of rapeseed oil methyl ester (500 EW) is added to the spray liquor.
The kill in percent is determined on the roots. 21 and 29 days after the application, the following results are obtained: […]

Pemphigus bursarius [2] = test: Example 3: chrysanthemums, lettuce root aphid; conditions: on roots, spray on above-ground parts 96 g of a.i./ha
Procedure: In three replications, in each case 10 about 5-month-old chrysanthemums (Camilla) in 2 l-vessels are treated against the lettuce root aphid Pemphigus bursarius. Here, the active compound Example (I-4) (240 SC) is applied with a knapsack sprayer operated by pressurized air at the beginning of the infestation at the stated application rates to the above-ground parts of the plants. The soil is covered with a film. The application rate is 600 l of water/ha. 0.1% a.i. of rapeseed oil methyl ester (500 EW) is added to the spray liquor. Omethoate as drip irrigation in a concentration of 0.1% is used for comparison. The application is carried out two days later.
The kill in percent is determined on the roots. […]

Bemisia argentifolii = test: Example 37: cantaloupe melons treated against Bemisia argentifolii; conditions: nymphs on leaves, g a.i./ha: endosulfan 1120, I-4 48
Procedure: In four replications, plots of a size of about 39 m^2 with cantaloupe melons of the cultivar “Western Shipper” are treated against Bemisia argentifolii. The application is carried out using a knapsack sprayer operated with pressurized air. Here, the active compound Example (I-4) (240 SC), in a tank mix with 0.2 a.i. of rapeseed oil methyl ester (500 EW), and the commercial standard endosulfan (360 EC) are tested at the stated application rates. Two applications are carried out at an interval of 16 days. The application rate is 187 l of water/ha.
Evaluation is carried out 5, 13, 21 and 29 days after the first treatment by rating the kill of the animals (nymphs) on the leaves.

Lepidosaphes beckii = test: Example 18: citrus trees treated against Lepidosaphes beckii; conditions: 140 days after treatment, larvae on fruits, g a.i./ha/m crown height: pyriproxyfen 50, I-4 48
Procedure: In three replications, in plots of a size of about 20 m^2, citrus trees of the cultivar “Oro Nules” are treated against Lepidosaphes beckii. The application is carried out using a high-pressure sprayer. Here, the active compound Example (I-4) (240 SC) in a tank mix with 0.1% a.i. of rapeseed oil methyl ester (500 EW) is tested against the commercial standard pyriproxyfen (100 EC), at the stated application rates. The application rate is 2500 l of water/ha.
Evaluation is carried out 140 days after the treatment by rating the kill of the larvae on the fruits.

Psylla piri = test: Example 5: pear trees treated against Psylla piri; conditions: nymphs on shoots, g a.i./ha/m crown height: amitraz 266, I-4 72
Procedure: In three replications, pear trees of the cultivar “Williams Christ” are treated against Psylla piri. Application is shortly before the eggs hatch. The application is carried out using a barrow-mounted sprayer operated with pressurized air. Here, the active compound Example (I-4) (240 SC) is tested in a tank mix with 0.1% a.i. rapeseed oil methyl ester (500 EW) at the stated amount against the standard amitraz (200 EC) at the stated amount. The application rate is 1000 l of water/ha.
Evaluation is carried out 7, 14 and 21 days after the treatment by rating the kill of the nymphs on the shoots.

| SMILES | Kill (%) 130 d (Aonidiella aurantii; 130 d after treatment) [%] | Kill (%) 176 d (Aonidiella aurantii; 176 d after treatment) [%] | Kill (%) 7 d (Bemisia tabaci) [%] | Kill (%) 14 d (Bemisia tabaci) [%] | Kill (%) 22 d (Bemisia tabaci) [%] | Kill (%) 7 d (Aphis fabae) [%] | Kill (%) 15 d (Aphis fabae) [%] | Kill (%) 21 d (Pemphigus bursarius [1]; 21 d after application) [%] | Kill (%) 29 d (Pemphigus bursarius [1]; 29 d after application) [%] | Kill (%) 9 d (Pemphigus bursarius [2]; 9 d) | Kill (%) (17 d) (Pemphigus bursarius [2]; 17 d) | Kill (%) 5 d (Bemisia argentifolii; 5 d after first of two treatments) [%] | Kill (%) 13 d (Bemisia argentifolii; 13 d after first of two treatments) [%] | Kill (%) 21 d (Bemisia argentifolii; 21 d after first of two treatments) [%] | Kill (%) 29 d (Bemisia argentifolii; 29 d after first of two treatments) [%] | Kill (%) 140 days (Lepidosaphes beckii) [%] | Kill (%) 7 d (Psylla piri; 7 d after treatment) [%] | Kill (%) 14 d (Psylla piri; 14 d after treatment) [%] | Kill (%) 21 d (Psylla piri; 21 d after treatment) [%] |
| --- | --- | --- | --- | --- | --- | --- | --- | --- | --- | --- | --- | --- | --- | --- | --- | --- | --- | --- | --- |
| CCOC(=O)OC1=C(c2cc(C)ccc2Br)C(=O)NC12CCC(OC)CC2 (stereo not drawn) [Example (I-2)] | 52 | 76 | 84.7 | 92.6 | 85.6 | 98.6 | 100 | 80.8 | 91.8 |  |  |  |  |  |  |  |  |  |  |
| CCOC(=O)OC1=C(c2cc(C)ccc2C)C(=O)NC12CCC(OC)CC2 (stereo not drawn) [Example (I-4)] |  |  |  |  |  | 100 | 100 |  |  | 46.9 (9 d) % | 80.4 (17 d) % | 100 | 100 | 98.1 | 90.5 | 100 | 100 | 100 | 100 |
| O=[N+]([O-])NC1=NCCN1Cc1ccc(Cl)nc1 [imidacloprid, reference compound] |  |  | 75.8 | 67.2 | 69.4 |  |  |  |  |  |  |  |  |  |  |  |  |  |  |
